# Assay results taken from patent US20240092835A1, “NOVEL PEPTIDES CAPABLE OF ALTERING NK CELL ACTIVITY” (Massachusetts Institute of Technology, priority 2022, published 2024).
# “Also recorded” adds a separate entry of the source. Where no end group is shown, it is not given here.
# How the values were obtained:
# [1] = biological target: CD94/NKG2A (Homo sapiens, UniProt P26715+Q13241); assay: Steady-state surface plasmon resonance of peptide-HLA-E complex with CD94/NKG2A; assay type: binding; settings: for Binding of peptide-HLA-E complexes to CD94/NKG2A normalized to a theoretical Rmax: steady-state SPR
# Sequence of CD94/NKG2A (P26715 94-233 limits assumed): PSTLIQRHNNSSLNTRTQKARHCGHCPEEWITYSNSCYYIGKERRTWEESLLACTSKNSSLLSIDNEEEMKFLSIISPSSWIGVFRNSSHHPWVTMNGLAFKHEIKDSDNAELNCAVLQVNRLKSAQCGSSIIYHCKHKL
# Sequence of CD94/NKG2A (Q13241 32-179 limits assumed): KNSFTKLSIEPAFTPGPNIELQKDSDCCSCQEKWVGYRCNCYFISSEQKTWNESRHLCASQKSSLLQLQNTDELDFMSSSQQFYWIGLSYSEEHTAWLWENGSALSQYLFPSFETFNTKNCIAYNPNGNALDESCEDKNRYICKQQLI
# [2] = biological target: CD94/NKG2C (Homo sapiens, UniProt P26717+Q13241); assay: Steady-state surface plasmon resonance of peptide-HLA-E complex with CD94/NKG2C; assay type: binding; settings: for Binding of peptide-HLA-E complexes to CD94/NKG2C normalized to a theoretical Rmax: steady-state SPR
# Sequence of CD94/NKG2C (P26717 94-231 limits assumed): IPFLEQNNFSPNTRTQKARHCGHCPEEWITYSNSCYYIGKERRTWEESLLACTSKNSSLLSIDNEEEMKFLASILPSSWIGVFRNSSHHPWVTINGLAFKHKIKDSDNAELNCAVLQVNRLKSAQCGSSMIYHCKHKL
# Sequence of CD94/NKG2C (Q13241 32-179 limits assumed): as the sequence (Q13241 32-179 limits assumed) above
# [3] = system: NKG2A+/NKG2C− NK cells; assay: NK cell activation markers in NKG2A+/NKG2C- NK cells incubated with peptide and K562 expressing HLA-E (inhibition); assay type: cell-based, human; settings: for effect on NKG2A+/NKG2C− NK cell inhibition (in words): K562 expressing HLA-E, CD107a, IFNG, TNF, CCL3; for percentage of CCL3+ NK cells / percentage of CD107a+ NK cells / percentage of IFNG+ NK cells / percentage of TNF+ NK cells: NKG2A+/NKG2C- NK cells, K562/HLA-E
# Outline: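 K562 + HLA-E, pulsed with human/CMV proteome peptides → incubated with sorted NK subsets → surface marker staining, % positive cells. Increase = activation; decrease = inhibition.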
# [4] = biological target: T1, HLA-E (Homo sapiens, UniProt P13747); assay: HLA-E surface stabilization assay with RMA-S/HLA-E cells; assay type: cell-based; settings: 30 μM peptide, 16 hours; for HLA-E surface expression stability (GeoMFI): anti-HLA-E antibody
# T1 construct: expressed in transfected cells; host or cells: RMA-S/HLA-E cells (antigen processing-defective lymphoma cell line)
# T1 sequence (P13747 22-358): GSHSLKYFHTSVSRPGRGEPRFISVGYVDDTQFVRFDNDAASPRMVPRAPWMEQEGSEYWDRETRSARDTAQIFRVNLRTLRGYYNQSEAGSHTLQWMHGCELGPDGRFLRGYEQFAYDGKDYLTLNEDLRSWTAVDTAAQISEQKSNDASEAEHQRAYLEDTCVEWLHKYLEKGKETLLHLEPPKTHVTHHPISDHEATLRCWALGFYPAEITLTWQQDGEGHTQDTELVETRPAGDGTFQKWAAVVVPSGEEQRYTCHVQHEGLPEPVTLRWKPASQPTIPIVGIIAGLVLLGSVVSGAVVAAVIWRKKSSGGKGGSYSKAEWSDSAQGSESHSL
# T1 sequence (P61769 21-119 partner): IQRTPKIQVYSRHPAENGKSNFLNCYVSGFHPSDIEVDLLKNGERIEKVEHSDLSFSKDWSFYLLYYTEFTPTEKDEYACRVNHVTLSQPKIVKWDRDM
# Procedure: HLA-E surface expression was assessed by measuring geometric mean fluorescence intensity (GeoMFI) in RMA-S cells following immunofluorescence staining with an anti-HLA-E antibody (Table 14). Increased GeoMFI was indicative of increased HLA-E surface expression stability following novel peptide exposures (FIG. 3).
# [5] = system: NKG2A−/NKG2C+ NK cells; assay: NKG2A-/NKG2C+ NK cell activation with peptide and RMA-S cells expressing HLA-E; assay type: cell-based; settings: RMA-S cells expressing HLA-E
# Procedure: An antigen processing-defective lymphoma cell line (RMA-S), with a low-level expression of HLA-E, were incubated with the novel peptides to determine the inhibitory strength on NKG2A−/NKG2C+NK cells relative to positive control sequences with differential effects ([…] (SEQ ID NO: 19)/VMAPRTLFL (SEQ ID NO: 18)). The effects of the peptides on NK cell inhibition were determined by measuring four markers of NK cell activation (CD107a, IFNG, TNF, CCL3) in NKG2A−/NKG2C+NK cells (FIGS. 2A-2D). Activation was indicated by an increase in percent cells positive for cell surface markers.
sequence,measurement,setting,value
"VNPGRSLFL [human5, VNPGRSLFL]",binding of peptide-HLA-E complex to CD94/NKG2A normalized to a fitted Rmax,[1]; CD94/NKG2A concentration 0 μM,−0.002
same,binding of peptide-HLA-E complex to CD94/NKG2A normalized to a fitted Rmax,[1]; CD94/NKG2A concentration 0.1 μM,0.177
same,binding of peptide-HLA-E complex to CD94/NKG2A normalized to a fitted Rmax,[1]; CD94/NKG2A concentration 0.2 μM,0.288
same,binding of peptide-HLA-E complex to CD94/NKG2A normalized to a fitted Rmax,[1]; CD94/NKG2A concentration 0.4 μM,0.434
same,binding of peptide-HLA-E complex to CD94/NKG2A normalized to a fitted Rmax,[1]; CD94/NKG2A concentration 0.8 μM,0.593
same,binding of peptide-HLA-E complex to CD94/NKG2A normalized to a fitted Rmax,[1]; CD94/NKG2A concentration 1.6 μM,0.739
same,binding of peptide-HLA-E complex to CD94/NKG2A normalized to a fitted Rmax,[1]; CD94/NKG2A concentration 3.2 μM,0.863
same,binding of peptide-HLA-E complex to CD94/NKG2A normalized to a fitted Rmax,[1]; CD94/NKG2A concentration 6.4 μM,0.955
same,binding of peptide-HLA-E complex to CD94/NKG2A normalized to a fitted Rmax,[1]; CD94/NKG2A concentration 12.8 μM,1.018
same,binding of peptide-HLA-E complex to CD94/NKG2A normalized to a fitted Rmax,[1]; CD94/NKG2A concentration 25.6 μM,1.059
same,binding of peptide-HLA-E complex to CD94/NKG2A normalized to a fitted Rmax,[1]; CD94/NKG2A concentration 51.2 μM,1.081
same,binding of peptide-HLA-E complex to CD94/NKG2A normalized to a fitted Rmax,[1]; CD94/NKG2A concentration 102.4 μM,1.105
same,Binding of peptide-HLA-E complexes to CD94/NKG2A normalized to a theoretical Rmax,[1]; CD94/NKG2A analyte concentration 0.000 μM,−0.001
same,Binding of peptide-HLA-E complexes to CD94/NKG2A normalized to a theoretical Rmax,[1]; CD94/NKG2A analyte concentration 0.100 μM,0.074
same,Binding of peptide-HLA-E complexes to CD94/NKG2A normalized to a theoretical Rmax,[1]; CD94/NKG2A analyte concentration 0.200 μM,0.120
same,Binding of peptide-HLA-E complexes to CD94/NKG2A normalized to a theoretical Rmax,[1]; CD94/NKG2A analyte concentration 0.400 μM,0.181
same,Binding of peptide-HLA-E complexes to CD94/NKG2A normalized to a theoretical Rmax,[1]; CD94/NKG2A analyte concentration 0.800 μM,0.247
same,Binding of peptide-HLA-E complexes to CD94/NKG2A normalized to a theoretical Rmax,[1]; CD94/NKG2A analyte concentration 1.600 μM,0.308
same,Binding of peptide-HLA-E complexes to CD94/NKG2A normalized to a theoretical Rmax,[1]; CD94/NKG2A analyte concentration 3.200 μM,0.360
same,Binding of peptide-HLA-E complexes to CD94/NKG2A normalized to a theoretical Rmax,[1]; CD94/NKG2A analyte concentration 6.400 μM,0.398
same,Binding of peptide-HLA-E complexes to CD94/NKG2A normalized to a theoretical Rmax,[1]; CD94/NKG2A analyte concentration 12.800 μM,0.425
same,Binding of peptide-HLA-E complexes to CD94/NKG2A normalized to a theoretical Rmax,[1]; CD94/NKG2A analyte concentration 25.600 μM,0.442
same,Binding of peptide-HLA-E complexes to CD94/NKG2A normalized to a theoretical Rmax,[1]; CD94/NKG2A analyte concentration 51.200 μM,0.451
same,Binding of peptide-HLA-E complexes to CD94/NKG2A normalized to a theoretical Rmax,[1]; CD94/NKG2A analyte concentration 102.400 μM,0.461
same,binding of peptide-HLA-E complex to CD94/NKG2C normalized to a fitted Rmax,[2]; CD94/NKG2C concentration 0 μM,−0.001
same,binding of peptide-HLA-E complex to CD94/NKG2C normalized to a fitted Rmax,[2]; CD94/NKG2C concentration 0.1 μM,0.064
same,binding of peptide-HLA-E complex to CD94/NKG2C normalized to a fitted Rmax,[2]; CD94/NKG2C concentration 0.2 μM,0.119
same,binding of peptide-HLA-E complex to CD94/NKG2C normalized to a fitted Rmax,[2]; CD94/NKG2C concentration 0.4 μM,0.205
same,binding of peptide-HLA-E complex to CD94/NKG2C normalized to a fitted Rmax,[2]; CD94/NKG2C concentration 0.8 μM,0.333
same,binding of peptide-HLA-E complex to CD94/NKG2C normalized to a fitted Rmax,[2]; CD94/NKG2C concentration 1.6 μM,0.488
same,binding of peptide-HLA-E complex to CD94/NKG2C normalized to a fitted Rmax,[2]; CD94/NKG2C concentration 3.2 μM,0.650
same,binding of peptide-HLA-E complex to CD94/NKG2C normalized to a fitted Rmax,[2]; CD94/NKG2C concentration 6.4 μM,0.795
same,binding of peptide-HLA-E complex to CD94/NKG2C normalized to a fitted Rmax,[2]; CD94/NKG2C concentration 12.8 μM,0.902
same,binding of peptide-HLA-E complex to CD94/NKG2C normalized to a fitted Rmax,[2]; CD94/NKG2C concentration 25.6 μM,0.971
same,binding of peptide-HLA-E complex to CD94/NKG2C normalized to a fitted Rmax,[2]; CD94/NKG2C concentration 51.2 μM,0.990
same,binding of peptide-HLA-E complex to CD94/NKG2C normalized to a fitted Rmax,[2]; CD94/NKG2C concentration 102.4 μM,0.983
same,Binding of peptide-HLA-E complexes to CD94/NKG2C normalized to a theoretical Rmax,[2]; CD94/NKG2C analyte concentration 0 μM,0.000
same,Binding of peptide-HLA-E complexes to CD94/NKG2C normalized to a theoretical Rmax,[2]; CD94/NKG2C analyte concentration 0.1 μM,0.024
same,Binding of peptide-HLA-E complexes to CD94/NKG2C normalized to a theoretical Rmax,[2]; CD94/NKG2C analyte concentration 0.2 μM,0.044
same,Binding of peptide-HLA-E complexes to CD94/NKG2C normalized to a theoretical Rmax,[2]; CD94/NKG2C analyte concentration 0.4 μM,0.076
same,Binding of peptide-HLA-E complexes to CD94/NKG2C normalized to a theoretical Rmax,[2]; CD94/NKG2C analyte concentration 0.8 μM,0.123
same,Binding of peptide-HLA-E complexes to CD94/NKG2C normalized to a theoretical Rmax,[2]; CD94/NKG2C analyte concentration 1.6 μM,0.180
same,Binding of peptide-HLA-E complexes to CD94/NKG2C normalized to a theoretical Rmax,[2]; CD94/NKG2C analyte concentration 3.2 μM,0.240
same,Binding of peptide-HLA-E complexes to CD94/NKG2C normalized to a theoretical Rmax,[2]; CD94/NKG2C analyte concentration 6.4 μM,0.294
same,Binding of peptide-HLA-E complexes to CD94/NKG2C normalized to a theoretical Rmax,[2]; CD94/NKG2C analyte concentration 12.8 μM,0.333
same,Binding of peptide-HLA-E complexes to CD94/NKG2C normalized to a theoretical Rmax,[2]; CD94/NKG2C analyte concentration 25.6 μM,0.359
same,Binding of peptide-HLA-E complexes to CD94/NKG2C normalized to a theoretical Rmax,[2]; CD94/NKG2C analyte concentration 51.2 μM,0.366
same,Binding of peptide-HLA-E complexes to CD94/NKG2C normalized to a theoretical Rmax,[2]; CD94/NKG2C analyte concentration 102.4 μM,0.363
same,effect on NKG2A+/NKG2C− NK cell inhibition (in words),[3]; listed as SEQ ID NO. 3,no or minimal effect
same,effect on NKG2A+/NKG2C− NK cell inhibition (in words),[3]; listed as h5,no effect
same,percentage of CCL3+ NK cells,[3]; Trial 1,51.6%
same,percentage of CD107a+ NK cells,[3]; Trial 1,36.8%
same,percentage of IFNG+ NK cells,[3]; Trial 1,16.9%
same,percentage of TNF+ NK cells,[3]; Trial 1,7.26%
same,percentage of CCL3+ NK cells,[3]; Trial 2,71.6%
same,percentage of CD107a+ NK cells,[3]; Trial 2,48.4%
same,percentage of IFNG+ NK cells,[3]; Trial 2,28.8%
same,percentage of TNF+ NK cells,[3]; Trial 2,14.6%
same,percentage of CCL3+ NK cells,[3]; Trial 3,55.3%
same,percentage of CD107a+ NK cells,[3]; Trial 3,43.1%
same,percentage of IFNG+ NK cells,[3]; Trial 3,30.8%
same,percentage of TNF+ NK cells,[3]; Trial 3,19.4%
same,percentage of CCL3+ NK cells,[3]; Trial 4,40.9%
same,percentage of CD107a+ NK cells,[3]; Trial 4,33.4%
same,percentage of IFNG+ NK cells,[3]; Trial 4,17.9%
same,percentage of TNF+ NK cells,[3]; Trial 4,10.7%
same,percentage of CCL3+ NK cells,[3]; Trial 5,44.2%
same,percentage of CD107a+ NK cells,[3]; Trial 5,30.4%
same,percentage of IFNG+ NK cells,[3]; Trial 5,16.5%
same,percentage of TNF+ NK cells,[3]; Trial 5,7.74%
same,percentage of CCL3+ NK cells,[3]; Trial 6,33.1%
same,percentage of CD107a+ NK cells,[3]; Trial 6,26%
same,percentage of IFNG+ NK cells,[3]; Trial 6,10.5%
same,percentage of TNF+ NK cells,[3]; Trial 6,6.36%
same,HLA-E surface expression stability (GeoMFI),[4]; Trial 1,569 GeoMFI
same,HLA-E surface expression stability (GeoMFI),[4]; Trial 2,509 GeoMFI
same,HLA-E surface expression stability (GeoMFI),[4]; Trial 3,566 GeoMFI
same,HLA-E surface expression stability (GeoMFI),[4]; Trial 4,750 GeoMFI
same,HLA-E surface expression stabilization strength (in words),[4]; listed as BFAR263-271,closest to the experimental negative control (DMSO); also recorded: lowest
same,NKG2A−/NKG2C+ NK cell activation relative to positive control peptides (in words),[5]; listed as SEQ ID NO. 3,"strongest activation of NK cells, comparable with the positive control peptides for several markers assessed"
same,NKG2A−/NKG2C+ NK cell activation relative to positive control peptides (in words),[5]; listed as h5,"strongest NK cell activation, comparable with the positive control peptides for several markers assessed"
